# Measurements published in patent publication US6610846B1, “Heteroaromatic glucokinase activators” (Hoffman-La Roche Inc., priority 1999, dated 2003).
# What was measured:
# [1] = system: C57BL/6J mice; assay: Glucokinase activator in vivo screen (blood glucose after oral dosing); conditions: administered orally, 50 mg/kg, C57BL/6J mice fasted two hours; decrease in blood glucose compared to vehicle over six hours (Example B)
# Method: Glucokinase Activator In Vivo Screen Protocol
# C57BL/6J mice are orally dosed via gavage with Glucokinase (GK) activator at 50 mg/kg body weight following a two hour fasting period. Blood glucose determinations are made five times during the six hour post-dose study period. Mice (n=6) are weighed and fasted for a two hour period prior to oral treatment.
melting point,SMILES,glucokinase activator in vivo activity [1]
83 to 87 °C,"Cc1csc(NC(=O)[C@H](CC2CCCC2)c2ccc(S(C)(=O)=O)cc2)n1 [Example 128, 3-Cyclopentyl-2(R)-(4-methanesulfonyl-phenyl)-N-(4-methyl-thiazol-2-yl)-propionamide]",excellent glucokinase activator in vivo activity
106 to 107 °C,"CS(=O)(=O)c1ccc(C(CC2CCCC2)C(=O)Nc2nccs2)cc1Br (centres unmarked) [Example 72, 2-(3-Bromo-4-methanesulfonyl-phenyl)-3-cyclopentyl-N-thiazol-2-yl-propionamide]",excellent glucokinase activator in vivo activity
92 to 95 °C,"CS(=O)(=O)c1ccc(C(CC2CCCC2)C(=O)Nc2ccccn2)cc1[N+](=O)[O-] (centres unmarked) [Example 44, 3-Cyclopentyl-2-(4-methanesulfonyl-3-nitrophenyl)-N-pyridin-2-yl-propionamide]",excellent glucokinase activator in vivo activity
81 to 85 °C,"Cc1cnc(NC(=O)[C@H](CC2CCCC2)c2ccc(S(C)(=O)=O)cc2)s1 [Example 129, 3-Cyclopentyl-2(R)-(4-methanesulfonyl-phenyl)-N-(5-methyl-thiazol-2-yl)-propionamide]",excellent glucokinase activator in vivo activity
168 to 170 °C,"O=C(Nc1nccs1)C(CC1CCCC1)c1ccc(OC(F)(F)F)cc1 (centres unmarked) [Example 112, 3-Cyclopentyl-N-thiazol-2-yl-2-(4-trifluoromethoxy-phenyl)-propionamide]",excellent glucokinase activator in vivo activity
145 to 148 °C,"CS(=O)(=O)c1ccc(C(CC2CCCC2)C(=O)Nc2nccs2)cc1C#N (centres unmarked) [Example 75, 2-(3-Cyano-4-methanesulfonyl-phenyl)-3-cyclopentyl-N-thiazol-2-yl-propionamide]",excellent glucokinase activator in vivo activity
157 to 160 °C,"COCS(=O)(=O)c1ccc(C(CC2CCCC2)C(=O)Nc2nccs2)cc1 (centres unmarked) [Example 125, 3-Cyclopentyl-2-(4-methoxymethanesulfonyl-phenyl)-N-thiazol-2-yl-propionamide]",excellent glucokinase activator in vivo activity
178 to 179 °C,"CCS(=O)(=O)c1ccc(C(CC2CCCC2)C(=O)Nc2nccs2)cc1 (centres unmarked) [Example 77, 3-Cyclopentyl-2-(4-ethanesulfonyl-phenyl)-N-thiazol-2-yl-propionamide]",excellent glucokinase activator in vivo activity
85 to 90 °C,"CS(=O)(=O)c1ccc([C@@H](CC2CCCC2)C(=O)Nc2ccncn2)cc1C(F)(F)F [Example 157(A), 3-Cyclopentyl-2(R)-(4-methanesulfonyl-3-trifluoromethyl-phenyl)-N-pyrimidin-4-yl-propionamide]",excellent glucokinase activator in vivo activity
83 to 88 °C,"CS(=O)(=O)c1ccc([C@@H](CC2CCCC2)C(=O)Nc2ncc(Cl)s2)cc1 [Example 131, N-(5-Chloro-thiazol-2-yl)-3-cyclopentyl-2(R)-(4-methanesulfonyl-phenyl)-propionamide]",excellent glucokinase activator in vivo activity
76 to 79 °C,"CS(=O)(=O)c1ccc(C(CC2CCCC2)C(=O)Nc2ncc(Cl)s2)cc1 (centres unmarked) [Example 130, N-(5-Chloro-thiazol-2-yl)-3-cyclopentyl-2-(4-methanesulfonyl-phenyl)-propionamide]",excellent glucokinase activator in vivo activity
40 to 44 °C,"O=C(Nc1ccccn1)C(CC1CCCC1)c1ccc(C(F)(F)F)c(F)c1 (centres unmarked) [Example 71, 3-Cyclopentyl-2-(3-fluoro-4-trifluoromethyl-phenyl)-N-pyridin-2-yl-propionamide]",excellent glucokinase activator in vivo activity
189 to 191 °C,"O=C(Nc1nccs1)C(CC1CCCC1)c1ccc(S(=O)(=O)C(F)(F)F)cc1 (centres unmarked) [Example 11(A), 3-Cyclopentyl-N-thiazol-2-yl-2-(4-trifluoromethanesulfonyl-phenyl)-propionamide]",excellent glucokinase activator in vivo activity
99 to 101 °C,"CS(=O)(=O)c1ccc(C(CC2CCCC2)C(=O)Nc2ccccn2)cc1Br (centres unmarked) [Example 73, 2-(3-Bromo-4-methanesulfonyl-phenyl)-3-cyclopentyl-N-pyridin-2-yl-propionamide]",excellent glucokinase activator in vivo activity
48 to 52 °C,"O=C(Nc1ccccn1)C(CC1CCCC1)c1ccc(Cl)c([N+](=O)[O-])c1 (centres unmarked) [Example 65, 2-(4-Chloro-3-nitro-phenyl)-3-cyclopentyl-N-pyridin-2-yl-propionamide]",excellent glucokinase activator in vivo activity
95 to 100 °C,"CS(=O)(=O)c1ccc(C(CC2CCCC2)C(=O)Nc2nccs2)cc1C(F)(F)F (centres unmarked) [Example 89(A), 3-Cyclopentyl-2-(4-methanesulfonyl-3-trifluoromethyl-phenyl)-N-thiazol-2-yl-propionamide]",excellent glucokinase activator in vivo activity
87 to 90 °C,"CS(=O)(=O)c1ccc(C(CC2CCCC2)C(=O)Nc2ccccn2)cc1C#N (centres unmarked) [Example 76, 2-(3-Cyano-4-methanesulfonyl-phenyl)-3-cyclopentyl-N-pyridin-2-yl-propionamide]",excellent glucokinase activator in vivo activity
151 to 153 °C,"O=C(Nc1ccccn1)C(CC1CCCC1)c1ccc(S(=O)(=O)C(F)(F)F)cc1 (centres unmarked) [Example 43(A), 3-Cyclopentyl-N-pyridin-2-yl-2-(4-trifluoromethanesulfonyl-phenyl)-propionamide]",excellent glucokinase activator in vivo activity
–,"CS(=O)(=O)c1ccc(C(CC2CCCC2)C(=O)Nc2cnccn2)cc1Br (centres unmarked) [Example 149, 2-(3-Bromo-4-methanesulfonyl-phenyl)-3-cyclopentyl-N-pyrazin-2-yl-propionamide]",excellent glucokinase activator in vivo activity
–,"Cc1nccc(NC(=O)[C@H](CC2CCCC2)c2ccc(S(C)(=O)=O)c(Cl)c2)n1 [Example 144, 2(R)-(3-Chloro-4-methanesulfonyl-phenyl)-3-cyclopentyl-N-(2-methyl-pyrimidin-4-yl)-propionamide]",excellent glucokinase activator in vivo activity
